Data: PubChem BioAssay (NCI)
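Where inhibition never reached the appropriate level, the endpoint shown equals the highest concentration tested. Otherwise, values were interpolated linearly from a five-concentration, 48-hour dose response in 96-well plates. GI50: concentration for 50% inhibition of growth. TGI: total growth inhibition.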

Assays:
Test in all cases: NCI anticancer screen, dose series, 48 h
[1] = tested on: IGROV1 ovarian
[2] = tested on: NCI-H522 lung
[3] = tested on: SK-MEL-2 melanoma
[4] = tested on: SW-620 colon
[5] = tested on: A498 renal
[6] = tested on: OVCAR-8 ovarian
[7] = tested on: CAKI-1 renal
[8] = tested on: BT-549 breast
[9] = tested on: U251 CNS
[10] = tested on: RXF 393 renal
[11] = tested on: OVCAR-4 ovarian
[12] = tested on: ACHN renal
[13] = tested on: M14 melanoma
[14] = tested on: MCF7 breast
[15] = tested on: NCI-H460 lung
[16] = tested on: UACC-257 melanoma
[17] = tested on: 786-0 renal
[18] = tested on: HCT-116 colon
[19] = tested on: KM12 colon
[20] = tested on: DU-145 prostate
[21] = tested on: SNB-75 CNS
[22] = tested on: K-562 leukemia
[23] = tested on: HCT-15 colon
[24] = tested on: NCI-H23 lung
[25] = tested on: SK-MEL-5 melanoma
[26] = tested on: NCI-H226 lung
[27] = tested on: PC-3 prostate
[28] = tested on: COLO 205 colon
[29] = tested on: SF-539 CNS
[30] = tested on: SF-268 CNS
[31] = tested on: NCI/ADR-RES ovarian
[32] = tested on: OVCAR-3 ovarian
[33] = tested on: TK-10 renal
[34] = tested on: EKVX NSCLC
[35] = tested on: MOLT-4 leukemia
[36] = tested on: HOP-92 NSCLC
[37] = tested on: SF-295 CNS
[38] = tested on: SNB-19 CNS
[39] = tested on: SN12C renal
[40] = tested on: MDA-MB-231 breast
[41] = tested on: RPMI-8226 leukemia
[42] = tested on: HOP-62 NSCLC
[43] = tested on: HT29 colon
[44] = tested on: SR leukemia
[45] = tested on: LOX IMVI melanoma
[46] = tested on: HL-60(TB) leukemia
[47] = tested on: UO-31 renal
[48] = tested on: UACC-62 melanoma
[49] = tested on: HS 578T breast
[50] = tested on: OVCAR-5 ovarian
[51] = tested on: SK-OV-3 ovarian
[52] = tested on: SK-MEL-28 melanoma
[53] = tested on: A549 NSCLC
[54] = tested on: MDA-MB-435
[55] = tested on: T-47D breast

SMILES: CCSc1nc(N)c(C#N)c(-c2ccco2)c1C#N
- GI50 [1]: 36.8 µM
- TGI [1]: > 100 µM
- GI50 [2]: 91.5 µM
- TGI [2]: > 100 µM
- GI50 [3]: > 100000 nM
- TGI [3]: > 100 µM
- GI50 [4]: 42.2 µM
- TGI [4]: > 100 µM
- GI50 [5]: 26.5 µM
- TGI [5]: > 100 µM
- GI50 [6]: 53.6 µM
- TGI [6]: > 100 µM
- GI50 [7]: 13.7 µM
- TGI [7]: 67.6 µM
- GI50 [8]: 32.3 µM
- TGI [8]: > 100 µM
- GI50 [9]: 22.7 µM
- TGI [9]: 83.7 µM
- GI50 [10]: 56.4 µM
- TGI [10]: > 100 µM
- GI50 [11]: > 100000 nM
- TGI [11]: > 100 µM
- GI50 [12]: 16.9 µM
- TGI [12]: 69.2 µM
- GI50 [13]: 48.1 µM
- TGI [13]: > 100 µM
- GI50 [14]: 15 µM
- TGI [14]: > 100 µM
- GI50 [15]: 33.5 µM
- TGI [15]: > 100 µM
- GI50 [16]: 31.7 µM
- TGI [16]: 80.2 µM
- GI50 [17]: 39.6 µM
- TGI [17]: > 100 µM
- GI50 [18]: 26.8 µM
- TGI [18]: > 100 µM
- GI50 [19]: 27.4 µM
- TGI [19]: > 100 µM
- GI50 [20]: 42.6 µM
- TGI [20]: > 100 µM
- GI50 [21]: > 100 µM
- TGI [21]: > 100 µM
- GI50 [22]: 43.7 µM
- TGI [22]: > 100 µM
- GI50 [23]: 28.4 µM
- TGI [23]: > 100 µM
- GI50 [24]: 53.2 µM
- TGI [24]: > 100 µM
- GI50 [25]: 33.3 µM
- TGI [25]: > 100 µM
- GI50 [26]: 29.9 µM
- TGI [26]: > 100 µM
- GI50 [27]: 22.3 µM
- TGI [27]: > 100 µM
- GI50 [28]: 30.2 µM
- TGI [28]: > 100 µM
- GI50 [29]: 23.3 µM
- TGI [29]: 69.3 µM
- GI50 [30]: 32.1 µM
- TGI [30]: > 100 µM
- GI50 [31]: 34 µM
- TGI [31]: > 100 µM
- GI50 [32]: 91.3 µM
- TGI [32]: > 100 µM
- GI50 [33]: 21.3 µM
- TGI [33]: 78.1 µM
- GI50 [34]: 25.4 µM
- TGI [34]: > 100 µM
- GI50 [35]: 51.9 µM
- TGI [35]: > 100 µM
- GI50 [36]: 5.85 µM
- TGI [36]: 45.5 µM
- GI50 [37]: 47.7 µM
- TGI [37]: > 100 µM
- GI50 [38]: 51.2 µM
- TGI [38]: > 100 µM
- GI50 [39]: > 100 µM
- TGI [39]: > 100 µM
- GI50 [40]: > 100000 nM
- TGI [40]: > 100000 nM
- GI50 [41]: 12.2 µM
- TGI [41]: 42.4 µM
- GI50 [42]: 80.9 µM
- TGI [42]: > 100 µM
- GI50 [43]: 56.4 µM
- TGI [43]: > 100 µM
- GI50 [44]: 20.2 µM
- TGI [44]: > 100 µM
- GI50 [45]: 17.1 µM
- TGI [45]: 37.1 µM
- GI50 [46]: 39.8 µM
- TGI [46]: > 100 µM
- GI50 [47]: 56.1 µM
- TGI [47]: > 100 µM
- GI50 [48]: 32.6 µM
- TGI [48]: > 100 µM
- GI50 [49]: 33.9 µM
- TGI [49]: > 100 µM
- GI50 [50]: > 100000 nM
- TGI [50]: > 100000 nM
- GI50 [51]: 53.3 µM
- TGI [51]: > 100 µM
- GI50 [52]: > 100000 nM
- TGI [52]: > 100000 nM
- GI50 [53]: 41.4 µM
- TGI [53]: > 100 µM
- GI50 [54]: 25.2 µM
- TGI [54]: 66.1 µM

SMILES: N=C(N)c1ccc(-c2ccc(-c3ccc(Cl)cc3)s2)nc1
- GI50 [3]: 2210 nM
- TGI [3]: 4.89 µM
- GI50 [11]: 1640 nM
- TGI [11]: 3.06 µM
- GI50 [12]: 1.65 µM
- TGI [12]: 3 µM
- GI50 [55]: 1820 nM
- TGI [55]: 4.49 µM
- GI50 [20]: 1.7 µM
- TGI [20]: 3.07 µM
- GI50 [40]: 1350 nM
- TGI [40]: 2740 nM
- GI50 [50]: 1560 nM
- TGI [50]: 2900 nM
- GI50 [51]: 3.56 µM
- TGI [51]: 18.1 µM
- GI50 [52]: 1620 nM
- TGI [52]: 2970 nM
- GI50 [54]: 1.65 µM
- TGI [54]: 3.02 µM
